Results published in patent publication US9073862B2, “Substituted 2-oxy-quinoline-3-carboxamides as KCNQ2/3 modulators” (Grünenthal GmbH, priority 2010, dated 2015).

Tests used:
[1] = system: withdrawal reflex of the rat tail (tail flick) in response to a radiant heat beam; assay: Low-intensity tail flick test (rat); format: in vivo; details: po, peroral; for ED50: at time of maximum efficacy
Description: Method II. Low-Intensity Tail Flick Test (Rat)
In the low-intensity tail flick test, the determination of the antinociceptive effect of the compounds according to the invention towards an acute noxious thermal stimulus is carried out by measuring the withdrawal reflex of the rat tail (tail flick) in response to a radiant heat beam (analgesia meter; model 2011 of the company Rhema Labortechnik, Hofheim, Germany) according to the method described by D'Amour and Smith (J. Pharm. Exp. Ther. 72, 74 79 (1941). To this end, the rats were placed in a plexiglas restrainer, and a low-intensity radiant heat beam (48° C.) was focused onto the dorsal surface of the tail root. The stimulus intensity was adjusted to result in a mean pre-drug control withdrawal latency of about 7 s, thus also allowing a supraspinal modulation of the spinally mediated acute nociceptive reflex. A cutoff time of 30 s was applied to avoid tissue damage. Male Sprague-Dawley rats (Janvier, Le Genest St. Isle, Frankreich) with weights of 200-250 g were used. 10 rats were used per group. Before administration of a compound according to the invention, the animals were pre-tested twice in the course of five minutes and the mean of these measurements was calculated as the pre-test mean. The antinociceptive effect was determined at 20, 40 and 60 min after peroral compound administration. The antinociceptive effect was calculated based on the increase in the tail withdrawal latency according to the following formula and is expressed as percentage of the maximum possible effect (MPE [%]): MPE=[(T1−T0)/(T2−T0)]*100
In this, T0 is the control latency time before and T1 the latency time after administration of the compound, T2 is the cutoff time and MPE is the maximum possible effect. Employing variant analysis (repeated measures ANOVA) allowed testing of statistically significant differences between the compounds according to the invention and the vehicle group. The significance level was set to p≦0.05. To determine the dose dependency, the particular compound according to the invention was administered in 3-5 logarithmically increasing doses, including a threshold dose and a maximum effective dose, and the ED50 values were determined with the aid of regression analysis. The ED50 calculation was performed at the time of maximum efficacy (usually 20 min after administration of the compounds).

KCNQ2/3 channels = target: T1, KCNQ2/3 channels (Homo sapiens, UniProt O43525+O43526); assay: Fluorescence assay using a voltage sensitive dye (fluorimetry); format: cell-based; details: CHO-K1 cells expressing KCNQ2/3 channels; for Emax: relative to retigabine = 100%, read-out: Fluorimetry % efficacy (retigabine = 100%)
T1 construct: expressed in transfected cells; host or cells: CHO-K1
Description: Method I. Fluorescence Assay Using a Voltage Sensitive Dye (Fluorimetry)
[…] CHO-K1 cells expressing KCNQ2/3 channels are cultivated adherently at 37° C., 5% CO2 and 95% humidity in cell culture bottles (e.g. 80 cm^2 TC flasks, Nunc) with DMEM-high glucose (Sigma Aldrich, D7777) including 10% FCS (PAN Biotech, e.g. 3302-P270521) or alternatively MEM Alpha Medium (1×, liquid, Invitrogen, #22571), 10% fetal calf serum (FCS) (Invitrogen, #10270-106, heat-inactivated) and the necessary selection antibiotics.
Before being sown out for the measurements, the cells are washed with 1×DPBS buffer Ca^2+/Mg^2+-free (e.g. Invitrogen, #14190-094) and detached from the bottom of the culture vessel by using Accutase (PAA Laboratories, #L11-007) (incubation with Accutase for 15 min at 37° C.). The cell number is determined using a CASY™ cell counter (TCC, Schärfe System). Depending on the optimal density for each individual cell line, 20,000-30,000 cells/well/100 μl are seeded onto 96-well Corning™ CellBIND™ assay plates (Flat Clear Bottom Black Polystyrene Microplates, #3340). Freshly seeded cells are then left to settle for one hour at room temperature, followed by incubation for 24 hours at 37° C., 5% CO2 and 95% humidity.
The voltage-sensitive fluorescent dye from the Membrane Potential Assay Kit (Red™ Bulk format part R8123 for FLIPR, MDS Analytical Technologies™) is prepared by dissolving the contents of one vessel Membrane Potential Assay Kit Red Component A in 200 ml of extracellular buffer (ES buffer, 120 mM NaCl, 1 mM KCl, 10 mM HEPES, 2 mM CaCl2, 2 mM MgCl2, 10 mM glucose; pH 7.4). After removal of the nutrient medium, the cells are washed once with 200 μl of ES buffer, then loaded for 45 min at room temperature in 100 μl of dye solution in the dark.
Fluorescence measurements are carried out in a BMG Labtech FLUOstar™, BMG Labtech NOVOstar™ or BMG Labtech POLARstar™ instrument (525 nm excitation, 560 nm emission, Bottom Read mode). After incubation with the dye, 50 μl of the test substances in the desired concentrations, or 50 μl of ES buffer for control purposes, are applied to the wells of the assay plate and incubated for 30 min at room temperature while being shielded from light. The fluorescence intensity of the dye is then measured for 5 min and the fluorescence value F1 of each well is thus determined at a given, constant time. 15 μl of a KCl solution are then added to each well (final concentration of potassium ions 92 mM). The change in fluorescence intensity is subsequently monitored until all the relevant values have been obtained (mainly 5-30 min). At a given time post KCl application, a fluorescence value F2 is determined, in this case at the time of the fluorescence peak.
For calculation, the fluorescence intensity F2 is corrected for the fluorescence intensity F1, and the activity (ΔF/F) of the target compound on the potassium channel is determined as follows:
In order to determine whether a substance has agonistic activity,
[formula] can be related to
[formula] of control wells.
[formula] is determined by adding to the well only the buffer solution instead of the test substance, determining the value F1K of the fluorescence intensity, adding the potassium ions as described above, and measuring a value F2K of the fluorescence intensity. F2K and F1K are then calculated as follows: […]
A substance has an agonistic activity on the potassium channel if
[formula] is greater than
Independently of the comparison of
[formula] it is possible to conclude that a target compound has agonistic activity if
[formula] increases dose dependently.
Calculations of EC50 and IC50 values are carried out with the aid of ‘Prism v4.0’ software (Graph Pad Software™).

[2] = read-out: Low intensity tail flick, rat, peroral, MPE (dose)

SMILES | EC50 (KCNQ2/3 channels) [nM] | Emax (KCNQ2/3 channels) [%] | ED50 [1] [mg/kg] | inhibition in vivo at 6.81 mg/kg ([1]; dose 6.81 mg/kg, read-out: Low intensity tail flick, rat, peroral, MPE (dose)) [%] | inhibition in vivo at 4.64 mg/kg [1, 2] [%] | inhibition in vivo at 10 mg/kg [1, 2] [%]
COCCOc1nc2cc(C(F)(F)F)ccc2c(C)c1C(=O)NCc1cccc(F)c1 [Example 7, N-[(3-fluorophenyl)-methyl]-2-(2-methoxy-ethoxy)-4-methyl-7-(trifluoromethyl)-quinoline-3-carboxylic acid amide] | 96 | 92 | 10 |  |  | 
COCCOc1nc2cc(C(F)(F)F)ccc2c(C)c1C(=O)NCc1ccc(F)cc1 [Example 8, N-[(4-fluorophenyl)-methyl]-2-(2-methoxy-ethoxy)-4-methyl-7-(trifluoromethyl)-quinoline-3-carboxylic acid amide] | 143 | 94 |  |  |  | 22
CCOc1nc2cc(C(F)(F)F)ccc2c(OC)c1C(=O)NCc1cccc(F)c1 [Example 12, 2-ethoxy-N-[(3-fluorophenyl)-methyl]-4-methoxy-7-(trifluoremethyl)-quinoline-3-carboxylic acid amide] | 104 | 170 |  |  | 27 | 
COc1nc2cc(C(F)(F)F)ccc2c(OC)c1C(=O)NCc1ccc(F)cc1 [Example 16, N-[(4-fluorophenyl)-methyl]-2,4-dimethoxy-7-(trifluoromethyl)-quinoline-3-carboxylic acid amide] | 106 | 159 |  |  |  | 74
CCOc1nc2cc(C(F)(F)F)ccc2c(C)c1C(=O)NCc1ccc(C)c(F)c1 [Example 20, 2-ethoxy-N-[(3-fluoro-4-methyl-phenyl)-methyl]-4-methyl-7-(trifluoromethyl)-quinoline-3-carboxylic acid amide] | 72 | 146 |  |  |  | 24
COc1nc2cc(F)cc(F)c2c(C)c1C(=O)NCc1cccc(F)c1 [Example 47, 5,7-difluoro-N-[(3-fluorophenyl)-methyl]-2-methoxy-4-methyl-quinoline-3-carboxylic acid amide] |  | 43 |  |  |  | 
COc1nc2ccccc2c(C(F)(F)F)c1C(=O)NCc1cccc(F)c1 [Example 51, N-[(3-fluorophenyl)-methyl]-2-methoxy-4-(trifluoromethyl)-quinoline-3-carboxylic acid amide] |  | 40 |  |  |  | 
CCOc1nc2ccccc2c(C(F)(F)F)c1C(=O)NCc1cccc(F)c1 [Example 52, 2-ethoxy-N-[(3-fluorophenyl)-methyl]-4-(trifluoromethyl)-quinoline-3-carboxylic acid amide] | 205 | 67 |  |  |  | 
CC(C)Oc1nc2ccccc2c(C(F)(F)F)c1C(=O)NCc1cccc(F)c1 [Example 53, N-[(3-fluorophenyl)-methyl]-2-isopropoxy-4-(trifluoromethyl)-quinoline-3-carboxylic acid amide] | 108 | 84 |  |  |  | 

Second part, led by results:

EC50 (KCNQ2/3 channels) [nM] | Emax (KCNQ2/3 channels) [%] | SMILES | ED50 [1] [mg/kg] | inhibition in vivo at 6.81 mg/kg ([1]; dose 6.81 mg/kg, read-out: Low intensity tail flick, rat, peroral, MPE (dose)) [%] | inhibition in vivo at 4.64 mg/kg [1, 2] [%] | inhibition in vivo at 10 mg/kg [1, 2] [%]
39 | 122 | CCOc1nc2cc(C(F)(F)F)ccc2c(C)c1C(=O)NCc1ccc(F)cc1 [Example 3, 2-ethoxy-N-[(4-fluorophenyl)-methyl]-4-methyl-7-(trifluoromethyl)-quinoline-3-carboxylic acid amide] | 2.5 |  |  | 
73 | 105 | COc1nc2cc(C(F)(F)F)ccc2c(C)c1C(=O)NCc1cccc(F)c1 [Example 4, N-[(3-fluorophenyl)-methyl]-2-methoxy-4-methyl-7-(trifluoromethyl)-quinoline-3-carboxylic acid amide] | 6.7 |  |  | 
57 | 122 | COc1nc2cc(C(F)(F)F)ccc2c(C)c1C(=O)NCc1ccc(F)cc1 [Example 5, N-[(4-fluorophenyl)-methyl]-2-methoxy-4-methyl-7-(trifluoromethyl)-quinoline-3-carboxylic acid amide] |  | 34 |  | 
58 | 132 | CCOc1nc2cc(C(F)(F)F)ccc2c(C)c1C(=O)NCc1cccc(F)c1 [Example 6, 2-ethoxy-N-[(3-fluorophenyl)-methyl]-4-methyl-7-(trifluoromethyl)-quinoline-3-carboxylic acid amide] |  |  | 67 | 
87 | 175 | Cc1c(C(=O)NCc2cccc(F)c2)c(OC(C)C)nc2cc(C(F)(F)F)ccc12 [Example 10, N-[(3-fluorophenyl)-methyl]-2-isopropoxy-4-methyl-7-(trifluoromethyl)-quinoline-3-carboxylic acid amide] | 3.8 |  |  | 
136 | 147 | COc1nc2cc(C(F)(F)F)ccc2c(OC)c1C(=O)NCc1cccc(F)c1 [Example 13, N-[(3-fluorophenyl)-methyl]-2,4-dimethoxy-7-(trifluoromethyl)-quinoline-3-carboxylic acid amide] |  |  |  | 10
58 | 111 | CCOc1nc2cc(C(F)(F)F)ccc2c(C)c1C(=O)NCc1cccc(C)c1 [Example 22, 2-ethoxy-4-methyl-N-(m-tolyl-methyl)-7-(trifluoromethyl)-quinoline-3-carboxylic acid amide] |  |  |  | 20
299 | 59 | COc1nc2cc(F)ccc2c(C)c1C(=O)NCc1ccc(F)cc1 [Example 46, 7-fluoro-N-[(4-fluorophenyl)-methyl]-2-methoxy-4-methyl-quinoline-3-carboxylic acid amide] |  |  |  | 
315 | 96 | COc1nc2cc(F)c(F)cc2c(C)c1C(=O)NCc1cccc(F)c1 [Example 48, 6,7-difluoro-N-[(3-fluorophenyl)-methyl]-2-methoxy-4-methyl-quinoline-3-carboxylic acid amide] |  |  |  | 
229 | 70 | COc1nc2c(F)c(F)ccc2c(C)c1C(=O)NCc1cccc(F)c1 [Example 49, 7,8-difluoro-N-[(3-fluorophenyl)-methyl]-2-methoxy-4-methyl-quinoline-3-carboxylic acid amide] |  |  |  | 
